The source of these data is patent US6989371B1, “Bombesin analogs for treatment of cancer” (Dabur Research Foundation, priority 1996, dated 2006).

Non-standard residues stand in square brackets, D forms with d. Residues, ends and D or L forms follow the SMILES beside them. Aib = CC(C)(N)C(=O)O

In one data set the test system is PA-1 (ovary). The data set is described as follows: two day MTT cytotoxicity assay (Example 12). Format: cell-based, human. How it is done:
(§1) The cytoxicity of the peptide analog was carried out by two day MTT [3-(4,5-dimethylthiazol-2-yl)-2,5-diphenyl tetrazolium bromide]assay. MTT assay is based on the principle of uptake of MTT, a tetrazolium salt, by metabolically active cells where it is metabolized by active mitochondria into a blue colored formazon product, which can be read spectrometrically (J. of Immunological Methods 65: 55–63, 1983). To prepare the MTT stock solution needed, MTT was dissolved in phosphate buffered saline with a pH of 7.4 to obtain an MTT concentration of 5 mg/ml; the resulting mixture was filtered through a 0.22 micron filter to sterilize and remove a small amount of insoluble residue. This filtered mixture was the MTT stock solution.
(§2) Briefly, for each tumor type, 10,000 cells were seeded in 96-well tissue culture plate and incubated with each peptide concentration individually in a CO2 incubator for 48 hrs. The peptide analog at different concentrations was added once every 24 hrs during the incubation period. Control cultures, which were not treated with the peptide was similarly incubated. The assay was terminated by adding 100 μg (20 μl) of MTT to each well, incubating for three hours, decanting supernatant and finally adding 150 μl of dimethylsulphoxide to each well to dissolve the formazon. The plates were incubated for 15 minutes at 37° C. and read spectrophotometrically at 540 nm; and cytotoxicity percentage was calculated by following formula: • Cytotoxicity Percentage=100×[1−X/R1], • where X=(absorbance of the treated sample at 540 nm-absorbance of a blank at 540 nn) and • R1=(absorbance of the untreated control at 540 nm)—(absorbance of the blank at 540 nm).
(§3) Thus in each of the MTT cytotoxicity assay the percentage was calculated according to the above formula and was based on the proliferation of the untreated controls, the value of which was considered as 100°0.
(§4) The biological activity of synthesized peptide SEQ ID NO:3 was tested on different human tumor cell lines such as HT-29 & PTC (colon), A549 (non small lung cell), KB (oral squamous cell), MCF7 & MDA.MB.453 (Breast), HuTu80 (duodenum), PA-1 (ovary), MOLT-4 (leukemia) and MlAPaCa2 (Pancreas) at various molar concentrations.
On the technique in general: Formazan colour is commonly taken as a measure of viable cells.

A further data set deals with MlAPaCa2 (Pancreas). The data set is described as follows: two day MTT cytotoxicity assay (Example 12). It counts as cell-based, human. How it is done:
as §1, §2, §3, §4

The test system of data set [1] is A549 (non small lung cell). The data set is described as follows: two day MTT cytotoxicity assay (Example 12). Format: cell-based, human. As for the experimental part:
as §1, §2, §3, §4

The subject of a further data set is HT-29 (colon). As to the kind of experiment: two day MTT cytotoxicity assay (Example 12). Format: cell-based, human. How it is done:
as §1, §2, §3, §4

The subject of another data set is KB (oral squamous cell). The data set is described as follows: two day MTT cytotoxicity assay (Example 12). It counts as cell-based, human. Particulars: 48 hrs. As for the experimental part: as §1, §2, §3, §4
The subject of another data set is PTC (colon). The data set is described as follows: two day MTT cytotoxicity assay (Example 12). Format: cell-based, human. Particulars: 48 hrs. As for the experimental part:
as §1, §2, §3, §4

The test system of a further data set is MOLT-4 (leukemia). The data set is described as follows: two day MTT cytotoxicity assay (Example 12). Format: cell-based, human. How it is done:
as §1, §2, §3, §4

The test system of the next data set is MDA.MB.453 (Breast). As to the kind of experiment: two day MTT cytotoxicity assay (Example 12). Format: cell-based, human. As for the experimental part:
as §1, §2, §3, §4

The subject of the next data set is MCF7 (Breast). As to the kind of experiment: two day MTT cytotoxicity assay (Example 12). It counts as cell-based, human. As for the experimental part: as §1, §2, §3, §4
The next data set concerns HuTu80 (duodenum). The data set is described as follows: two day MTT cytotoxicity assay (Example 12). Format: cell-based, human. How it is done: as §1, §2, §3, §4
Data set [2] has as its system MCF-7 MIII human breast cancer cell line xenografts. Particulars: MCF-7 MIII xenografts, female athymic nude mice, after 2 weeks of treatment, alone or in combination with SB-75; cited from earlier work.
For data set [3], the system named is human gastric cancer cell line Hs746T xenografts. The note with it: nude mice bearing Hs746T xenografts; cited from earlier work.
The subject of another data set is intact SCLC cells. The note with it: 37° C., RPMI medium, 0–1080 minutes; cited from earlier work.
For another data set, the system named is SCLC xenograft. The note with it: in vivo; cited from earlier work.

As to `CC(C)C[C@H](NC(=O)[C@H](Cc1c[nH]cn1)NC(=O)C(C)(C)NC(=O)[C@@H](NC(=O)[C@H](C)NC(=O)[C@H](Cc1c[nH]c2ccccc12)NC(=O)[C@H](CCC(N)=O)NC(=O)[C@H](N)Cc1ccccc1)C(C)C)C(N)=O` [SEQ ID NO: 3, D-Phe-Gln-Trp-Ala-Val-Aib-His-Leu-NH2] (H-[dF]QWAV[Aib]HL-NH2; N-terminus assumed), the Percentage cytotoxicity is reported as 37.7 ± 3.9% in the data set on PA-1 (ovary) (PA-1, 10 pM, 48 hrs); 40.1 ± 6.2% in the data set with PA-1 (ovary) (PA-1, 100 pM, 48 hrs); 25.4 ± 4.2% in the data set on PA-1 (ovary) (PA-1, 10 nM, 48 hrs); 34.2 ± 5.8% in the data set with PA-1 (ovary) (PA-1, 100 nM, 48 hrs); 31.2 ± 5.1% in the data set on PA-1 (ovary) (PA-1, 1 μM, 48 hrs); 36.1 ± 6.1% with PA-1 (ovary) (PA-1, 48 hrs). Moreover, the Percentage cytotoxicity in the data set on MlAPaCa2 (Pancreas) (MIAPaCa2, 10 pM, 48 hrs) came to 27.4 ± 4.5%; in the data set with MlAPaCa2 (Pancreas) (MIAPaCa2, 100 pM, 48 hrs) it was 28.2 ± 4.5%; in the data set on MlAPaCa2 (Pancreas) (MIAPaCa2, 10 nM, 48 hrs), 33.2 ± 6.7%; with MlAPaCa2 (Pancreas) (MIAPaCa2, 100 nM, 48 hrs), 30.3 ± 4.2%; in the data set with MlAPaCa2 (Pancreas) (MIAPaCa2, 1 μM, 48 hrs), 33.3 ± 4.5%; in the data set with MlAPaCa2 (Pancreas) (MIAPaCa2, 48 hrs), 36.4 ± 0.5%. For the same compound, the Percentage cytotoxicity came to 30.5 ± 3.5% in data set [1] (A549, 10 pM, 48 hrs); 25.2 ± 3.5% in data set [1] (A549, 100 pM, 48 hrs); 32.2 ± 5.5% in [1] (A549, 10 nM, 48 hrs); 23.6 ± 4.5% in [1] (A549, 100 nM, 48 hrs); 30.7 ± 6.5% in [1] (A549, 1 μM, 48 hrs); 32.4 ± 4.5% in data set [1] (A549, 48 hrs). The Percentage cytotoxicity in the data set on HT-29 (colon) (HT29, 10 pM, 48 hrs) was 18.7 ± 4.5%; in the data set on HT-29 (colon) (HT29, 100 pM, 48 hrs), 19.9 ± 5.5%; with HT-29 (colon) (HT29, 10 nM, 48 hrs), 11.8 ± 5.0%; with HT-29 (colon) (HT29, 100 nM, 48 hrs) it was 17.8 ± 4.5%; with HT-29 (colon) (HT29, 1 μM, 48 hrs) it was 25.4 ± 5.5%; in the data set on HT-29 (colon) (HT29, 48 hrs), 20.3 ± 4.5%. Further, the Percentage cytotoxicity with KB (oral squamous cell) (10 pM) worked out at 40.9 ± 5.5%; in the data set with KB (oral squamous cell) (100 pM), 26.4 ± 4.5%; with KB (oral squamous cell) (10 nM) it was 30.9 ± 5.5%; with KB (oral squamous cell) (100 nM), 31.6 ± 6.5%; in the data set on KB (oral squamous cell) (1 μM) it was 32.1 ± 5.0%; with KB (oral squamous cell), 30.4 ± 6.5%. Further, the Percentage cytotoxicity with PTC (colon) (10 pM) is reported as 80.0 ± 7.1%; in the data set with PTC (colon) (100 pM) it was 26.5 ± 3.8%; with PTC (colon) (10 nM) it was 27.7 ± 3.6%; in the data set with PTC (colon) (100 nM), 27.7 ± 2.8%; with PTC (colon) (1 μM), 17.9 ± 2.5%; in the data set with PTC (colon) it was 23.8 ± 2.8%. Also, the Percentage cytotoxicity is 49.9 ± 4.1% with MOLT-4 (leukemia) (MOLT-4, 10 pM, 48 hrs); 15.9 ± 3.0% in the data set with MOLT-4 (leukemia) (MOLT-4, 100 pM, 48 hrs); “Nil” in the data set on MOLT-4 (leukemia) (MOLT-4, 10 nM, 48 hrs); 1.4 ± 1.0% with MOLT-4 (leukemia) (MOLT-4, 100 nM, 48 hrs); 9.0 ± 1.2% with MOLT-4 (leukemia) (MOLT-4, 1 μM, 48 hrs); 1.0 ± 0.4% with MOLT-4 (leukemia) (MOLT-4, 48 hrs). Also, the Percentage cytotoxicity in the data set on MDA.MB.453 (Breast) (MDA.MB.453, 10 pM, 48 hrs) is recorded as 49.5 ± 4.2%; with MDA.MB.453 (Breast) (MDA.MB.453, 100 pM, 48 hrs), 25.5 ± 2.9%; in the data set on MDA.MB.453 (Breast) (MDA.MB.453, 10 nM, 48 hrs), “Nil”; in the data set with MDA.MB.453 (Breast) (MDA.MB.453, 100 nM, 48 hrs), 11.2 ± 3.1%; in the data set with MDA.MB.453 (Breast) (MDA.MB.453, 1 μM, 48 hrs), 5.6 ± 3.5%; in the data set on MDA.MB.453 (Breast) (MDA.MB.453, 48 hrs), 9.6 ± 1.9%. In addition, the Percentage cytotoxicity is recorded as 39.33 ± 2.6% in the data set with MCF7 (Breast) (MCF 7, 10 pM, 48 hrs); 38.95 ± 4.5% in the data set with MCF7 (Breast) (MCF 7, 100 pM, 48 hrs); 24.35 ± 5% in the data set on MCF7 (Breast) (MCF 7, 10 nM, 48 hrs); “Nil” in the data set on MCF7 (Breast) (MCF 7, 100 nM, 48 hrs); “Nil” in the data set with MCF7 (Breast) (MCF 7, 1 μM, 48 hrs); 30.68 ± 6% in the data set with MCF7 (Breast) (MCF 7, 48 hrs). Besides, the Percentage cytotoxicity worked out at 10.3 ± 3.5% with HuTu80 (duodenum) (HuTu80, 10 pM, 48 hrs); 14.7 ± 4.2% in the data set with HuTu80 (duodenum) (HuTu80, 100 pM, 48 hrs); 14.3 ± 3.5% with HuTu80 (duodenum) (HuTu80, 10 nM, 48 hrs); 15.5 ± 4.7% in the data set with HuTu80 (duodenum) (HuTu80, 100 nM, 48 hrs); 12.2 ± 4.0% in the data set on HuTu80 (duodenum) (HuTu80, 1 μM, 48 hrs); 13.3 ± 4.0% in the data set on HuTu80 (duodenum) (HuTu80, 48 hrs).

As to “(DTpi6, Leu3, psi[CH2NH]—Leu14) bombesin (6–14) [RC-3095]”, the tumor volume entry in data set [2] is “significant inhibition of tumor volume”. Moreover, the tumor growth entry in data set [3] is “effectively inhibited tumor growth”.

Turning to [Psi 13, 14] Bombesin, the “TI/2 (stability to metabolic enzymes)” value in the data set on intact SCLC cells was 646 min. Also, the SCLC xenograft formation entry in the data set with SCLC xenograft was “inhibited SCLC xenograft formation in vivo in a dose-dependent manner”.
